Measurements published in patent US5846944A (priority 1997, dated 1998).
Where two headings read alike, the source gives them in different places.

Key:
[1] = tested on: hypercholesterolemic atherosclerosis, New Zealand White rabbits; settings: cited from earlier work
[2] = tested on: Atherosclerotic plaques, New Zealand White rabbits; test: Development of atherosclerotic plaques in rabbits on experimental diets (Example 1); format: in vivo; settings: control diet without cholesterol; flaxseed 15% of diet or SDG 15 mg/kg oral; 2 months
Experimental: (§1) Experiments were carried out on six to eight week old female New Zealand white rabbits weighing between 1.8 and 2.0 kg. All procedures relating to the care and welfare of test animals within this experimental protocol conformed to a Standard Operating Procedure (SOP) approved by the Council on Animal Care, University of Saskatchewan, Saskatoon, Saskatchewan, Canada.
(§2) Blood samples for measurement of triglycerides (TG), total cholesterol (TC), low density lipoprotein cholesterol (LDL-C), very-low density lipoprotein cholesterol (VLDL-C), and high density lipoprotein cholesterol (HDL-C) were taken before the animals were assigned to the experimental diet (T=0), and after 1 (T=1) and 2 months (T=2) on the experimental diet. The rabbits were sacrificed under pentabarbital anesthesia at the end of 2 months. The aorta was removed for the assessment of atherosclerotic plaques.
(§3) Much has been made of the importance of the composition of certain dietary fats toward health, particularly in relation to the degree of saturation of the fatty acid composition of the triglycerides.

[3] = Body weight of hypercholesterolemic rabbits (Example 1); format: in vivo, New Zealand white rabbits
Experimental: as §1, §2, §3

[4] = tested on: New Zealand white rabbits; test: Serum lipids in rabbits (Example 4); format: in vivo; settings: + 1% cholesterol
Experimental: as §1, §2

[5] = tested on: New Zealand white rabbits; test: Serum lipids (TC, LDL-C, VLDL-C, HDL-C, triglycerides) in rabbits on experimental diets (Example 1); format: in vivo
Experimental: as §1
as §2, with “plaques. […]” for “plaques.”

[6] = tested on: endotoxic shock, anesthetized dogs; test: Endotoxic-shock-induced changes in cardiovascular function, contractility, MDA and antioxidant reserve in anesthetized dogs (Example 2); format: in vivo; settings: SDG 10 mg/kg i.v. 15 min prior to endotoxin 5 mg/kg i.v.
Experimental: The dogs were divided into three groups. Group I, (sham 3 hours, n=5). Group II, (ET, n=9), these dogs received endotoxin (5 mg/kg, intravenously). […] Mean aortic blood pressure (mAo), cardiac index (CI) a measure of cardiac function, and cardiac contractility (dp/dt at CPIP/PAW) were measured before (0 min) and at 30 min, 60 min, 90 min, 120 min and 180 min after endotoxin administration. At the end of 3 hours of experiment heart was removed for measurement of MDA and antioxidant reserve. Cardiac function and contractility were measured. Left ventricular MDA (LV-MDA) and left ventricular chemiluminescence (LV-CL) a measure of antioxidant reserve were also estimated.

[7] = Body weight of hypercholesterolemic rabbits (Example 4); format: in vivo, New Zealand White rabbits; settings: + 1% cholesterol
Experimental: as §1, §2

[8] = tested on: streptozotocin-induced diabetes mellitus, Sprague-Dawley rats; test: Streptozotocin-induced diabetes mellitus in rats (Example 3); format: in vivo; settings: for Plasma Glucose: mean + S.E., P<0.05 vs Group I and vs Group II
Experimental: Experimental diabetes mellitus was produced in Sprague-Dawley rats by injecting streptozotocin (STZ, 65 mg/kg) intravenously. Diagnosis of diabetes mellitus was established by testing for the presence of glucosuria with Ames Multi Stix (Miles Canada Inc., Etobicoke, Ontario) on the 3rd day after streptozotocin administration. The rats were divided into 4 groups.

[9] = tested on: hypercholesterolemic atherosclerosis, New Zealand White rabbits; test: Comparison with other compounds: hypercholesterolemic atherosclerosis and total cholesterol in rabbits; format: in vivo; settings: compared with Vitamin E
From the text: The effect of Probucol on reducing atherosclerosis varied between 15-45%, depending upon the extent of the hypercholesterolemia.
The mechanism of action for Vitamin E is now generally accepted as preventing the development of hypercholesterolemic atherosclerosis through its antioxidant activity and its ability to scavenge free radicals in the bloodstream.

[10] = tested on: diabetes mellitus, BBdp rats; test: Spontaneously developing IDDM in diabetic prone BB (BBdp) rats (Example 5); format: in vivo; settings: SDG 22 mg/kg daily
Experimental: Two animal models of IDDM used were: streptozotocin-induced and diabetic prone (dp) BB rats (BBdp). The Zucker diabetic fatty rat (ZDF), an animal model closely resembling human NIDDM, was used for NIDDM.
BBdp rats develop diabetes melliuts spontaneously. […] Serum malondialdehyde (MDA) a measure of levels of oxygen radicals, and antioxidant reserve [pancreatic-chemiluminescence (Pancreatic-CL)] were assessed in blood and pancreas. Male 35-day old BBdp and age matched nondiabetic prone BE (BBn) rats were obtained from Animal Resources Division, Health Protection Branch (Ottawa, Canada).
Two rats from BBn and 4 rats from BBdp at the age of 35 days were sacrificed to measure serum glucose and MDA, and pancreatic MDA and antioxidant reserve. […] Diagnosis of diabetes mellitus was established by testing for the presence of glucosuria which was done every altenate day for 120 days or until glucosuria appeared. Once they developed diabetes or at the end of 120 days rats were anesthetized with nembutal sodium. Blood samples were taken to measure serum glucose and MDA, and pancreas were removed to assess pancreatic MDA and antioxidant reserve. None of the BBdp rats tested positive for glucosuria at 5 weeks and at that age the serum glucose in BBn and BBdp rats were 8.75±0.63 and 10.03±0.65 mmoles/L respectively.

[11] = tested on: NIDDM, Zucker diabetic fatty rat (ZDF); test: NIDDM in Zucker diabetic fatty rats (Example 5); format: in vivo; settings: SDG 22 mg/kg daily orally in drinking water; two rats examined; two untreated rats showed clear signs
Experimental: Oxidative stress was assessed by measuring lipid peroxidation product malondialdehyde (MDA) a measure of levels of oxygen radicals, and tissue chemiluminescence (CL) an index of antioxidant reserve in blood and pancreatic tissue. Male 5-6 weeks old ZDF and age match Zucker lean control (ZLC) rats were obtained from Charles River, St. Constant, Quebec, Canada.
Rats were tested for glucosuria to establish diabetes at 5-6 weeks before they were assigned to various groups. None of the rats had glucosuria at this age. […] At the end of the protocol, under anesthesia, blood samples were taken to measure serum glucose and MDA, and pancreas were removed to assess pancreatic MDA and antioxidant reserve.

[12] = 0 month, + 1% cholesterol group
[13] = 0 month, control diet without cholesterol
[14] = 1 month, + 1% cholesterol, flaxseed 15% or SDG 15 mg/kg oral
[15] = 1 month, control diet without cholesterol, flaxseed 15% or SDG 15 mg/kg oral
[16] = 2 months, + 1% cholesterol, flaxseed 15% or SDG 15 mg/kg oral
[17] = 0 months, SDG 5 mg/kg or SDG (89% pure) 11.24 mg/kg group
[18] = 1 month, SDG 5 mg/kg or SDG (89% pure) 11.24 mg/kg, orally daily
[19] = 2 months, SDG 5 mg/kg or SDG (89% pure) 11.24 mg/kg, orally daily
[20] = 2 months, control diet without cholesterol, flaxseed 15% or SDG 15 mg/kg oral
[21] = SDG 22 mg/kg orally for 3 days + STZ 65 mg/kg i.v., 12 rats/group
[22] = SDG 44 mg/kg orally for 3 days + STZ 65 mg/kg i.v., 10 rats/group

CC(C)(Sc1cc(C(C)(C)C)c(O)c(C(C)(C)C)c1)Sc1cc(C(C)(C)C)c(O)c(C(C)(C)C)c1 [Probucol]
reduction of hypercholesterolemic atherosclerosis ([1]; Probucol 0.5% in the diet (equivalent to 250 mg/Kg), 0.5% cholesterol diet): up to 43%
total cholesterol in the bloodstream ([1]; Probucol 0.5% in the diet, 0.5% cholesterol diet): did not reduce the total cholesterol
effect on reducing atherosclerosis ([1]; Probucol, depending upon the extent of the hypercholesterolemia): 15-45%

COc1cc(CC(COC2OC(CO)C(O)C(O)C2O)C(COC2OC(CO)C(O)C(O)C2O)Cc2ccc(O)c(OC)c2)ccc1O (stereo not drawn) [SDG, secoisolariciresinol diglucoside]
Atherosclerotic plaques (% of total internal surface area) [2]: 0 % of total internal surface ar
Body weight [3, 12]: 1.25 ± 0.03 kg
Body weight [3, 13]: 1.75 ± 0.02 kg
Body weight [3, 14]: 1.98 ± 0.08 kg
Body weight [3, 15]: 2.34 ± 0.04 kg
Body weight [3, 16]: 2.35 ± 0.10 kg
Serum HDL-C levels [4, 17]: 0.83 ± 0.08 mmol/L
Serum LDL-C levels [4, 17]: 0.89 ± 0.14 mmol/L
Serum Triglyceride levels [4, 17]: 1.30 ± 0.19 mmol/L
Serum VLDL-C levels [4, 17]: 0.59 ± 0.09 mmol/L
Total serum cholesterol levels [4, 17]: 2.31 ± 0.19 mmol/L
Serum HDL-C levels [4, 18]: 0.76 ± 0.42 mmol/L
Serum LDL-C levels [4, 18]: 75.98 ± 9.04 mmol/L
Serum Triglyceride levels [4, 18]: 0.97 ± 0.16 mmol/L
Serum VLDL-C levels [4, 18]: 0.44 ± 0.08 mmol/L
Total serum cholesterol levels [4, 18]: 77.24 ± 7.22 mmol/L
Serum HDL-C levels [4, 19]: 0.48 ± 0.10 mmol/L
Serum LDL-C levels [4, 19]: 58.68 ± 9.69 mmol/L
Serum Triglyceride levels [4, 19]: 0.87 ± 0.20 mmol/L
Serum VLDL-C levels [4, 19]: 0.39 ± 0.09 mmol/L
Total serum cholesterol levels [4, 19]: 59.61 ± 9.8 mmol/L
Serum HDL-C levels [5, 12]: 0.62 ± 0.10 mmol/L
Serum LDL-C levels [5, 12]: 1.09 ± 0.19 mmol/L
Serum Triglyceride levels [5, 12]: 1.21 ± 0.09 mmol/L
Serum VLDL-C levels [5, 12]: 0.55 ± 0.04 mmol/L
Total serum cholesterol levels [5, 12]: 2.26 ± 0.25 mmol/L
Serum HDL-C levels [5, 13]: 0.58 ± 0.09 mmol/L
Serum LDL-C levels [5, 13]: 0.34 ± 0.09 mmol/L
Serum Triglyceride levels [5, 13]: 1.10 ± 0.13 mmol/L
Serum VLDL-C levels [5, 13]: 0.50 ± 0.06 mmol/L
Total serum cholesterol levels [5, 13]: 1.42 ± 0.11 mmol/L
Serum HDL-C levels [5, 14]: 1.30 ± 0.18 mmol/L
Serum LDL-C levels [5, 14]: 66.26 ± 7.23 mmol/L
Serum Triglyceride levels [5, 14]: 1.40 ± 0.17 mmol/L
Serum VLDL-C levels [5, 14]: 0.64 ± 0.08 mmol/L
Total serum cholesterol levels [5, 14]: 68.20 ± 7.41 mmol/L
Serum HDL-C levels [5, 15]: 0.60 ± 0.06 mmol/L
Serum LDL-C levels [5, 15]: 0.33 ± 0.06 mmol/L
Serum Triglyceride levels [5, 15]: 0.63 ± 0.02 mmol/L
Serum VLDL-C levels [5, 15]: 0.29 ± 0.01 mmol/L
Total serum cholesterol levels [5, 15]: 1.22 ± 0.11 mmol/L
Serum HDL-C levels [5, 16]: 1.20 ± 0.48 mmol/L
Serum LDL-C levels [5, 16]: 43.25 ± 6.64 mmol/L
Serum Triglyceride levels [5, 16]: 1.83 ± 0.35 mmol/L
Serum VLDL-C levels [5, 16]: 0.83 ± 0.16 mmol/L
Total serum cholesterol levels [5, 16]: 45.18 ± 6.68 mmol/L
Serum HDL-C levels [5, 20]: 0.50 ± 0.00 mmol/L
Serum LDL-C levels [5, 20]: 0.25 ± 0.04 mmol/L
Serum Triglyceride levels [5, 20]: 0.60 ± 0.12 mmol/L
Serum VLDL-C levels [5, 20]: 0.27 ± 0.02 mmol/L
Total serum cholesterol levels [5, 20]: 1.12 ± 0.10 mmol/L
Mean aortic blood pressure (mAo), ET-induced fall [6]: prevented the ET-induced fall in mAO up to 30 min
Left ventricular MDA (LV-MDA), ET-induced increase ([6]; 3 hours): prevented the ET-induced increase in LV-MDA
antioxidant reserve (LV-CL), ET-induced decrease ([6]; 3 hours): prevented the ET-induced decrease in antioxidant reserve
Body weight [7, 17]: 1.47 ± 0.02 kg
Body weight [7, 18]: 2.45 ± 0.04 kg
# Rats Developing Diabetes [8, 21]: 2 rats
percent of rats developing diabetes mellitus [8, 21]: 16.6%
Plasma Glucose ([8]; SDG 22 mg/kg orally for 3 days + STZ): 9.63 ± 0.71 mmol/L
preventing the development of diabetes, 44 mg/kg compared with 22 mg/kg ([8]; SDG 44 mg/kg): more effective than in the dose of 22 mg/kg
# Rats Developing Diabetes [8, 22]: 1 rats
percent of rats developing diabetes mellitus [8, 22]: 10%
Plasma Glucose ([8]; SDG 44 mg/kg orally for 3 days + STZ): 10.01 ± 0.76 mmol/L
plasma glucose levels compared with streptozotocin-treated group ([8]; SDG 22 and 44 mg/kg): much lower than those in streptozotocin-treated group
prevention of the development of STZ-induced diabetes mellitus ([8]; SDG 22 and 44 mg/kg, overall): approximately 81%
reduction of hypercholesterolemic atherosclerosis and of total blood cholesterol [9]: accomplishes both
rats that developed diabetes ([10]; orally in drinking water, up to 120 days, untreated BBdp 72.7%): 21.4%
prevention of the development of diabetes ([10]; orally in drinking water, vs untreated BBdp): 70.55%
Pancreatic / serum MDA ([10]; both nondiabetic and diabetic, vs untreated BBdp): lower in the SDG-treated group in both nondiabetic and diabetic as compared to untreated BBdp rats
serum glucose, rats that developed diabetes ([10]; compared with nondiabetic SDG-treated BBdp): higher than those not developing diabetes in this group
onset of diabetes ([10]; rats that developed diabetes): delayed the onset of diabetes in ones that developed diabetes
Pancreatic antioxidant reserve (Pancreatic-CL) ([10]; untreated BBdp vs control or SDG-treated group): slightly lower in the untreated group as compared to the control or SDG-treated group but were not significant
signs of diabetes [11]: showed no signs of diabetes

Vitamin E
reduction of hypercholesterolemic atherosclerosis ([1]; Vitamin E 40 mg/kg, rabbits): up to 73%
total blood cholesterol ([1]; Vitamin E 40 mg/kg, rabbits): without reducing the total blood cholesterol
